For orientation: IC50 means the midpoint of a concentration-inhibition curve. Low values mean greater potency, high ones weaker potency.

This test relates to Jurkat. In words: CellTiter-Glo Luminescent Cell Viability Assay, half inhibitory concentration (IC50) on tumor cell proliferation. Conditions: Homo sapiens, Jurkat cells, 72 h treatment. Format: cell-based. The procedure, abridged: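 Jurkat cells seeded at 20,000 cells/well in serum-containing RPMI1640, treated after 24 h with serially diluted compound for 72 h at 37 °C, 5% CO2. Viability read by CellTiter-Glo luminescence; IC50 calculated from growth-inhibition curves.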
In general terms: ATP-based viability assays read luminescence as a measure of living cells.
Regarding `O=C(/C=C/c1cccnc1)NCCCCC1CCN(C(=O)c2ccc(N3CCN(C(=O)CCCCCCNc4cccc5c4CN(C4CCC(=O)NC4=O)C5=O)CC3)cc2)CC1` (stereo not shown) [SIAIS632018, (E)-N-(4-(1-(4-(4-(7-((2-(2,6-dioxopiperidin-3-yl)-1-oxoisoindolin-4-yl)amino)heptanoyl)piperazin-1-yl)benzoyl)piperidin-4-yl)butyl)-3-(pyridin-3-yl)acrylamide], 55.5 nM corresponded to half-maximal inhibition (IC50).
For `O=C(/C=C/c1cccnc1)NCCCCC1CCN(C(=O)c2ccc(N3CCN(C(=O)CSc4cccc5c4C(=O)N(C4CCC(=O)NC4=O)C5=O)CC3)cc2)CC1` (stereo not shown) [SIAIS632027, (E)-N-(4-(1-(4-(4-(2-((2-(2,6-dioxopiperidin-3-yl)-1,3-dioxoisoindolin-4-yl)thio)acetyl)piperazin-1-yl)benzoyl)piperidin-4-yl)butyl)-3-(pyridin-3-yl)acrylamide] the value was 294 nM.
With `O=C(/C=C/c1cccnc1)NCCCCC1CCN(C(=O)c2ccc(N3CCN(C(=O)CCSc4cccc5c4C(=O)N(C4CCC(=O)NC4=O)C5=O)CC3)cc2)CC1` (stereo not shown) [SIAIS632028, (E)-N-(4-(1-(4-(4-(3-((2-(2,6-dioxopiperidin-3-yl)-1,3-dioxoisoindolin-4-yl)thio)propanoyl)piperazin-1-yl)benzoyl)piperidin-4-yl)butyl)-3-(pyridin-3-yl)acrylamide] the figure was 105 nM; with `O=C(/C=C/c1cccnc1)NCCCCC1CCN(C(=O)c2ccc(N3CCN(C(=O)CCCCSc4cccc5c4C(=O)N(C4CCC(=O)NC4=O)C5=O)CC3)cc2)CC1` (stereo not shown) [SIAIS632029, (E)-N-(4-(1-(4-(4-(5-((2-(2,6-dioxopiperidin-3-yl)-1,3-dioxoisoindolin-4-yl)thio)pentanoyl)piperazin-1-yl)benzoyl)piperidin-4-yl)butyl)-3-(pyridin-3-yl)acrylamide], 28.7 nM; with `O=C(/C=C/c1cccnc1)NCCCCC1CCN(C(=O)c2ccc(N3CCN(C(=O)CCCCCSc4cccc5c4C(=O)N(C4CCC(=O)NC4=O)C5=O)CC3)cc2)CC1` (stereo not shown) [SIAIS632030, (E)-N-(4-(1-(4-(4-(6-((2-(2,6-dioxopiperidin-3-yl)-1,3-dioxoisoindolin-4-yl)thio)hexanoyl)piperazin-1-yl)benzoyl)piperidin-4-yl)butyl)-3-(pyridin-3-yl)acrylamide], 11 nM.
With `O=C(/C=C/c1cccnc1)NCCCCC1CCN(C(=O)c2ccc(N3CCN(C(=O)CCCCCCSc4cccc5c4C(=O)N(C4CCC(=O)NC4=O)C5=O)CC3)cc2)CC1` (stereo not shown) [SIAIS632031, (E)-N-(4-(1-(4-(4-(7-((2-(2,6-dioxopiperidin-3-yl)-1,3-dioxoisoindolin-4-yl)thio)heptanoyl)piperazin-1-yl)benzoyl)piperidin-4-yl)butyl)-3-(pyridin-3-yl)acrylamide] the figure was 24.4 nM; with `O=C(/C=C/c1cccnc1)NCCCCC1CCN(C(=O)c2ccc(N3CCN(C(=O)CCCCCCCSc4cccc5c4C(=O)N(C4CCC(=O)NC4=O)C5=O)CC3)cc2)CC1` (stereo not shown) [SIAIS632032, (E)-N-(4-(1-(4-(4-(8-((2-(2,6-dioxopiperidin-3-yl)-1,3-dioxoisoindolin-4-yl)thio)octanoyl)piperazin-1-yl)benzoyl)piperidin-4-yl)butyl)-3-(pyridin-3-yl)acrylamide], 192 nM; with `O=C(/C=C/c1cccnc1)NCCCCC1CCN(C(=O)c2ccc(N3CCN(C(=O)COc4cccc5c4C(=O)N(C4CCC(=O)NC4=O)C5=O)CC3)cc2)CC1` (stereo not shown) [SIAIS632033, (E)-N-(4-(1-(4-(4-(2-((2-(2,6-dioxopiperidin-3-yl)-1,3-dioxoisoindolin-4-yl)oxy)acetyl)piperazin-1-yl)benzoyl)piperidin-4-yl)butyl)-3-(pyridin-3-yl)acrylamide], 78.7 nM.
Turning to `O=C(/C=C/c1cccnc1)NCCCCC1CCN(C(=O)c2ccc(N3CCN(C(=O)CCCCOc4cccc5c4C(=O)N(C4CCC(=O)NC4=O)C5=O)CC3)cc2)CC1` (stereo not shown) [SIAIS632034, (E)-N-(4-(1-(4-(4-(5-((2-(2,6-dioxopiperidin-3-yl)-1,3-dioxoisoindolin-4-yl)oxy)pentanoyl)piperazin-1-yl)benzoyl)piperidin-4-yl)butyl)-3-(pyridin-3-yl)acrylamide], it took 95.1 nM to reach half-maximal inhibition (IC50).
For `O=C(/C=C/c1cccnc1)NCCCCC1CCN(C(=O)c2ccc(N3CCN(C(=O)CCCCCOc4cccc5c4C(=O)N(C4CCC(=O)NC4=O)C5=O)CC3)cc2)CC1` (stereo not shown) [SIAIS632035, (E)-N-(4-(1-(4-(4-(6-((2-(2,6-dioxopiperidin-3-yl)-1,3-dioxoisoindolin-4-yl)oxy)hexanoyl)piperazin-1-yl)benzoyl)piperidin-4-yl)butyl)-3-(pyridin-3-yl)acrylamide] the value was 8.52 nM; for `O=C(/C=C/c1cccnc1)NCCCCC1CCN(C(=O)c2ccc(N3CCN(C(=O)CCCCCCOc4cccc5c4C(=O)N(C4CCC(=O)NC4=O)C5=O)CC3)cc2)CC1` (stereo not shown) [SIAIS632036, (E)-N-(4-(1-(4-(4-(7-((2-(2,6-dioxopiperidin-3-yl)-1,3-dioxoisoindolin-4-yl)oxy)heptanoyl)piperazin-1-yl)benzoyl)piperidin-4-yl)butyl)-3-(pyridin-3-yl)acrylamide], 29.3 nM; for `O=C(/C=C/c1cccnc1)NCCCCC1CCN(C(=O)c2ccc(N3CCN(CCCCCC#Cc4cccc5c4CN(C4CCC(=O)NC4=O)C5=O)CC3)nc2)CC1` (stereo not shown) [SIAIS632039, (E)-N-(4-(1-(6-(4-(7-(2-(2,6-dioxopiperidin-3-yl)-1-oxoisoindolin-4-yl)hept-6-yn-1-yl)piperazin-1-yl)nicotinoyl)piperidin-4-yl)butyl)-3-(pyridin-3-yl)acrylamide], 2.75 nM.
With `O=C(/C=C/c1cccnc1)NCCCCC1CCN(C(=O)c2ccc(N3CCN(CCCCCCC#Cc4cccc5c4CN(C4CCC(=O)NC4=O)C5=O)CC3)nc2)CC1` (stereo not shown) [SIAIS632040, (E)-N-(4-(1-(6-(4-(8-(2-(2,6-dioxopiperidin-3-yl)-1-oxoisoindolin-4-yl)oct-7-yn-1-yl)piperazin-1-yl)nicotinoyl)piperidin-4-yl)butyl)-3-(pyridin-3-yl)acrylamide] the figure was 5.67 nM; with `O=C(/C=C/c1cccnc1)NCCCCC1CCN(C(=O)c2ccc(N3CCN(CCCCSc4cccc5c4CN(C4CCC(=O)NC4=O)C5=O)CC3)nc2)CC1` (stereo not shown) [SIAIS632041, (E)-N-(4-(1-(6-(4-(4-((2-(2,6-dioxopiperidin-3-yl)-1-oxoisoindolin-4-yl)thio)butyl)piperazin-1-yl)nicotinoyl)piperidin-4-yl)butyl)-3-(pyridin-3-yl)acrylamide], 1.03 nM.
With `Cc1ncsc1-c1ccc(CNC(=O)[C@@H]2C[C@@H](O)CN2C(=O)[C@@H](NC(=O)CCCCC(=O)N2CCN(C3CCN(c4ccc(C(=O)N5CCC(CCCCNC(=O)/C=C/c6cccnc6)CC5)nn4)CC3)CC2)C(C)(C)C)cc1` [SIAIS633063, (2S,4R)-1-((S)-3,3-dimethyl-2-(6-oxo-6-(4-(1-(6-(4-(4-((E)-3-(pyridin-3-yl)acrylamido)butyl)piperidine-1-carbonyl)pyridazin-3-yl)piperidin-4-yl)piperazin-1-yl)hexanamido)butanoyl)-4-hydroxy-N-(4-(4-methylthiazol-5-yl)benzyl)pyrrolidine-2-carboxamide] the figure was 255 nM.
Turning to `O=C(/C=C/c1cccnc1)NCCCCC1CCN(C(=O)c2ccc(N3CCC(N4CCN(CCCCCC#Cc5cccc6c5CN(C5CCC(=O)NC5=O)C6=O)CC4)CC3)nc2)CC1` (stereo not shown) [SIAIS633093, (E)-N-(4-(1-(6-(4-(4-(7-(2-(2,6-dioxopiperidin-3-yl)-1-oxoisoindolin-4-yl)hept-6-yn-1-yl)piperazin-1-yl)piperidin-1-yl)nicotinoyl)piperidin-4-yl)butyl)-3-(pyridin-3-yl)acrylamide], the IC50 came out at 15.8 nM. Compared with the last compound, the IC50 is about 16-fold lower.
The compound `O=C(/C=C/c1cccnc1)NCCCCC1CCN(C(=O)c2ccc(N3CCC(N4CCN(CCCCCCC#Cc5cccc6c5CN(C5CCC(=O)NC5=O)C6=O)CC4)CC3)nc2)CC1` (stereo not shown) [SIAIS633094, (E)-N-(4-(1-(6-(4-(4-(8-(2-(2,6-dioxopiperidin-3-yl)-1-oxoisoindolin-4-yl)oct-7-yn-1-yl)piperazin-1-yl)piperidin-1-yl)nicotinoyl)piperidin-4-yl)butyl)-3-(pyridin-3-yl)acrylamide] gave an IC50 of 6.18 nM. Against the preceding compound, the IC50 is about 2.6-fold lower.
In turn, `O=C(/C=C/c1cccnc1)NCCCCC1CCN(C(=O)c2ccc(N3CCN(CCCCCCOc4cccc5c4CN(C4CCC(=O)NC4=O)C5=O)CC3)cc2)CC1` (stereo not shown) [SIAIS633097, (E)-N-(4-(1-(4-(4-(6-((2-(2,6-dioxopiperidin-3-yl)-1-oxoisoindolin-4-yl)oxy)hexyl)piperazin-1-yl)benzoyl)piperidin-4-yl)butyl)-3-(pyridin-3-yl)acrylamide] showed an IC50 of 79 nM.
With `O=C(/C=C/c1cccnc1)NCCCCC1CCN(C(=O)c2ccc(N3CCN(CCCCCCCOc4cccc5c4CN(C4CCC(=O)NC4=O)C5=O)CC3)cc2)CC1` (stereo not shown) [SIAIS633098, (E)-N-(4-(1-(4-(4-(7-((2-(2,6-dioxopiperidin-3-yl)-1-oxoisoindolin-4-yl)oxy)heptyl)piperazin-1-yl)benzoyl)piperidin-4-yl)butyl)-3-(pyridin-3-yl)acrylamide] the figure was 33.9 nM.
